Results as given in patent publication US11072634B2, “Inhibitors of transglutaminases” (Zedira GmbH, priority 2016, dated 2021).
*1 amine or outer side, *2 acyl side, *3 side chain or, on linkers, in order; H or OH if unused. Where a SMILES comes first, the peptide text is derived from it. [ ]: non-standard residue; d: D form. The star is where a group is joined. X1 = CCCCCNC(=O)C(=O)CC[C@H](N[*:1])C(=O)[*:2]; Isonicotinoyl(3-COOH) = O=C(O)c1cnccc1C(=O)*; DON = [N-]=[N+]=CC(=O)CC[C@H](N)C(=O)O; Pro(4-oxo) = O=C1CN[C@H](C(=O)O)C1; Chg = N[C@H](C(=O)O)C1CCCCC1; Tle = CC(C)(C)[C@H](N)C(=O)O; Cbz = O=C(OCc1ccccc1)*

What was measured:
[1] = target: T1, TG2 (Homo sapiens, UniProt P21980); experiment: FXIII assay format using TG2 instead of FXIII (selectivity of FXIIIa blockers); assay type: biochemical; conditions: Table 3, selectivity with respect to TG2; read-out: IC50 TG2
T1 sequence (P21980 1-687): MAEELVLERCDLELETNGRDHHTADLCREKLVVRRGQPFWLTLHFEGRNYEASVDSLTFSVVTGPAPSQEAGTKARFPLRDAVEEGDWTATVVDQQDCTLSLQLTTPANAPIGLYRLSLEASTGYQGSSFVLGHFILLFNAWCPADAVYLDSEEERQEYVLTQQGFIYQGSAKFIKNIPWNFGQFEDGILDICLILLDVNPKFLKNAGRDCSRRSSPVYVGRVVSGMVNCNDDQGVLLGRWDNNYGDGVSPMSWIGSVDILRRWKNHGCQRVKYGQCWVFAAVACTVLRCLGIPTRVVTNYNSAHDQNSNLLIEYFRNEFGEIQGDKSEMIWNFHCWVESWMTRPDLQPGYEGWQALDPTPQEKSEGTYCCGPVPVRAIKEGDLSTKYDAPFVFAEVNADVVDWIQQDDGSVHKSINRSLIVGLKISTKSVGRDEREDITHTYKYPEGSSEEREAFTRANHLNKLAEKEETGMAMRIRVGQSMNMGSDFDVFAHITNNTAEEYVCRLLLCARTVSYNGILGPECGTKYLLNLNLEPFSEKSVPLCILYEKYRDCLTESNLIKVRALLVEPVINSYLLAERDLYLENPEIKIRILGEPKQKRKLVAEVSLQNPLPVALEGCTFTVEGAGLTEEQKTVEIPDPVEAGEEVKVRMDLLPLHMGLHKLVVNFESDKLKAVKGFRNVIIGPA
Protocol: 50 μg lyophilized His-tagged recombinant human factor XIII A-subunit (His6-rhFXIII, Zedira product 1027) is reconstituted in H2O (volume depends on original volume before lyophilization) resulting in a buffer containing 20 mM Tris-HCl, 150 mM NaCl, 1 mM EDTA, 1 mM DTT, 189 mg/ml maltodextrin, pH=7.5. The rhFXIII stock solution is diluted in buffer (50 mM Tris-HCl, 7.5 mM CaCl2, 150 mM NaCl, pH=7.4) to give a working solution of 59 U/ml (based on the amine-incorporation activity measured using transglutaminase activity assay #1036 (Zedira GmbH), described below).
A 10 mM inhibitor stock solution is prepared in DMSO, and from this a serial 1:2-fold dilution series is prepared also in DMSO. Each of the initial dilutions is subsequently diluted 1:50-fold with buffer (50 mM Tris-HCl, 7.5 mM CaCl2, 150 mM NaCl, pH=7.4) to yield the final working dilutions containing 2% (v/v) DMSO.
15 μl of inhibitor working dilution are added per well of a 96 well microtiter plate. As control, 15 μl of a 2% (v/v) DMSO solution prepared using the buffer mentioned above are added per well.
480 μl of His6-rhFXIII working solution and 120 μl human alpha thrombin (0.5 NIH units/μl) are added to 10.8 ml assay buffer (50 mM Tris-HCl, 7.5 mM CaCl2, 150 mM NaCl, 5 mM DTT, 13.4 mM glycine methylester, 50 μM Abz-NE(CAD-DNP)EQVSPLILLK-OH, (Zedira product A101; patent No.: EP 1781807B1), pH=7.4). From this master-mix solution, 285 μl are added per well containing the inhibitor. Increase in fluorescence is measured using […] and λem=418 nm at 37° C. for 35 min. A slope of the increase in fluorescence between 20 and 30 min is calculated for determination of the IC50 value (inhibitor concentration at which 50% of the initial FXIII activity is blocked).
This assay was also used to determine selectivity of inhibitors preferentially blocking FXIIIa by using TG2 instead of FXIII.
Analysis of enzymatic activity is performed by calculation of the slope of an increase in fluorescence intensity. IC50 values are calculated by plotting the enzymatic activity (as percentage from control containing 2% DMSO instead of inhibitor) against the inhibitor concentration. IC50 is defined as the inhibitor concentration blocking 50%) of initial enzyme activity.

[2] = system: fresh citrated whole blood; experiment: Thromboelastometry (ROTEM delta) in whole blood with t-PA; conditions: human whole blood
Protocol: Thromboelastometry is a visco-elastic method for the assessment of blood coagulation. In whole blood parameters like clotting time (CT), clot formation time (CFT), maximum clot firmness (MCF) and lysis index at 60 min (LI60) were obtained using the ROTEM® delta device according to the manufacturer.
Briefly, 20 μL star-TEM® (0.2 mol/l CaCl2), 20 μL r ex-TEM® (recombinant tissue factor, phospholipids, heparin inhibitor), 10 μL inhibitor stock solution (1.8-0.23 mM), combined with 10 μL t-PA stock solution (0.72 μg/ml) to yield concentrations of 0.9-0.11 mM in 18% DMSO/PBS with 0.36 μg/ml t-PA and 300 μL fresh citrated whole blood (human, from healthy consenting donors) were mixed in a disposable cuvette. As control the inhibitor stock solution was replaced by 36% DMSO/0.36 μg/ml t-PA in PBS.

[3] = target: T2, recombinant human factor XIII A-subunit (rhFXIII-A, plasma transglutaminase) (Homo sapiens, UniProt P00488); experiment: Inhibition of rec. human coagulation factor XIII (fluorescence, Abz-NE(CAD-DNP)EQVSPLILLK-OH); assay type: biochemical; conditions: Table 3, FXIII inhibitors; read-out: IC50 FXIII
T2 construct: His6; purchased Zedira 1027 (so in the source); T027)
T2 sequence (P00488 39-732 limits assumed): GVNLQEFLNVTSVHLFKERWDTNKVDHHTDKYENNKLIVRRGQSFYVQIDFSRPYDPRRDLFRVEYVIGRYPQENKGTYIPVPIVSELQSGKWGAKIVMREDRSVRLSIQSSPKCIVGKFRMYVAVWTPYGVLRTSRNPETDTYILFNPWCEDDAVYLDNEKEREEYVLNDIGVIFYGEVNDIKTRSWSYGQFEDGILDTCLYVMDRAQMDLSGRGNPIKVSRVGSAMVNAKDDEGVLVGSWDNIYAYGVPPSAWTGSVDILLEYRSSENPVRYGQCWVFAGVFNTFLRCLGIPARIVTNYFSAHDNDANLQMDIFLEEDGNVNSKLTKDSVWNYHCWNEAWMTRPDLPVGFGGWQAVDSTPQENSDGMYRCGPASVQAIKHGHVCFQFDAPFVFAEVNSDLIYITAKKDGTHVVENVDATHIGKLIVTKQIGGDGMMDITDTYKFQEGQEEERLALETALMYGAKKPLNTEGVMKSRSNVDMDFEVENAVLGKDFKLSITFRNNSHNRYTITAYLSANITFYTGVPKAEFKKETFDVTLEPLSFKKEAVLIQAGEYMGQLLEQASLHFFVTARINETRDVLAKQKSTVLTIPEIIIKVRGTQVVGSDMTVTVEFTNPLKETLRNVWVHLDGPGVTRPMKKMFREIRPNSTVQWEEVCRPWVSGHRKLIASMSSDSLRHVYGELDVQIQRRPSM
How it was run: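 His6-rhFXIII activated by human alpha thrombin in Tris buffer pH 7.4 with 7.5 mM CaCl2, 5 mM DTT, 13.4 mM glycine methylester and 50 μM quenched peptide substrate. Fluorescence (ex 313, em 418 nm) followed at 37 °C for 35 min; IC50 from slope between 20 and 30 min versus 2% DMSO control.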

[4] = system: CaCo2 (human colon carcinoma cell line); experiment: Cell Proliferation ELISA, BrdU; assay type: cell-based
Protocol: (§1) The following cell lines are used for determination of cytotoxicity: • CaCo2 (human colon carcinoma cell line) • Huh7 (human liver carcinoma cell line).
(§2) Cells are cultivated in DMEM/10% FCS at 37° C. and 5% CO2 in a 96 well plate with an initial seeding density of 2×10^4 cells/well.
(§3) Transglutaminase inhibitors are added to the cells with final concentrations from 0.1 μM to 1 mM one hour after seeding. The different inhibitor dilutions are prepared in DMSO, resulting in a final concentration of 1% (v/v) DMSO in every well (2 μl inhibitor in 200 μl cell culture medium). Cycloheximide (2.5 μg/ml) and Camptothecin (0.2 μg/ml) are used as control compounds. All measurements are performed in triplicates.
(§4) Determination of proliferation using Cell Proliferation ELISA, BrdU (Roche, Cat. No. 11647229001).
(§5) After 24 h of incubation with inhibitors or controls, BrdU is added to the cells. After further incubation for 18 h, the cells are fixed and cellular DNA becomes denatured. A monoclonal antibody (conjugated with peroxidase) raised against BrdU is added to the wells and binds to BrdU which is incorporated into the DNA. Substrate solution is added and absorbance at 450 nm is recorded. Further analysis is performed according to the manufacturer's protocol.

[5] = system: Huh7 (human liver carcinoma cell line); experiment: Cell Proliferation ELISA, BrdU; assay type: cell-based
Protocol: as §1, §2, §3, §4, §5

[6] = system: CaCo2 (human colon carcinoma cell line); experiment: Metabolic activity, EZ4U-Assay; assay type: cell-based
Protocol: as §1, §2, §3
(§6) Determination of metabolic activity using EZ4U-Assay (Biomedica, Cat. No. BI-5000).
(§7) After 48 h of incubation with inhibitors or controls, the tetrazolium substrate is added to the cells. Substrate turnover by the cells is measured over two hours at 450 nm (using 630 nm was reference wavelength).

[7] = system: Huh7 (human liver carcinoma cell line); experiment: Metabolic activity, EZ4U-Assay; assay type: cell-based
Protocol: as §1, §2, §3, §6, §7

[8] = system: CaCo2 and Huh7 cells; experiment: Cytotoxicity of transglutaminase inhibitors (BrdU and EZ4U); assay type: cell-based, human; conditions: BrdU and EZ4U, depending on the cell type
Protocol: as §1, §2, §3
Cytotoxicity of transglutaminase inhibitors is evaluated with two different assays:
as §4
After 24 h of incubation with inhibitors or controls, BrdU is added to the cells. After further incubation for 18 h, the cells are fixed and cellular DNA becomes denatured. […] Substrate solution is added and absorbance at 450 nm is recorded. […]
as §7

CCCCCNC(=O)C(=O)CC[C@H](NC(=O)c1ccncc1C(=O)O)C(=O)N[C@H](C(=O)N1CC(=O)C[C@H]1C(=O)N[C@H](C(=O)N[C@H](C(N)=O)C1CCCCC1)C1CCCCC1)C(C)(C)C [Compound E27, 4-((S)-1-((S)-1-((S)-2-((S)-2-((S)-2-amino-1-cyclohexyl-2-oxoethylamino)-1-cyclohexyl-2-oxoethylcarbamoyl)-4-oxopyrrolidin-1-yl)-3,3-dimethyl-1-oxobutan-2-ylamino)-6-1,5,6-trioxo-6-(pentylamino)hexan-2-ylcarbamoyl)nicotinic acid] ({Isonicotinoyl(3-COOH)}-[X1][Tle][Pro(4-oxo)][Chg][Chg]-NH2)
IC50 [1]: 7.8 µM
reduction of maximum clot firmness (MCF) compared to control (K) ([2]; 6.25-50 μM, with t-PA): dose dependent influence
clot lysis at 60 minutes (LI60) ([2]; in the presence of 0.02% t-PA): dose dependent influence
IC50 [3]: 0.06 µM

COC(=O)[C@H](CC(C)C)NC(=O)[C@@H]1CCCN1C(=O)[C@@H](NC(=O)[C@H](CCC(=O)C=[N+]=[N-])NC(=O)OCc1ccccc1)C(C)C [Compound Z006, Z-DON-VPL-OMe, reference compound] (Cbz-[DON]VPL-OMe)
Cytotoxicity concentration (>10% deviation from negative control), BrdU, Caco2 [4]: 250 µM
Cytotoxicity concentration (>10% deviation from negative control), BrdU, Huh-7 [5]: 125 µM
Cytotoxicity concentration (>10% deviation from negative control), EZ4U, Caoo2 [6]: 500 µM
Cytotoxicity concentration (>10% deviation from negative control), EZ4U, Huh-7 [7]: 125 µM
concentration at which cytotoxic (reduced cell proliferation and metabolic activity) [8]: 125 µM
